Experimental data reported in paper PMC4942819 (Scientific Reports, 2016).
≈ marks a conversion by molar mass, not a printed value. Where “and” joins values, the source holds several entries; their conditions need not be identical. Equal entries are not always repeated. Where two headings read alike, the source gives them in different places.

Legend:
[1] = system: Mycobacterium tuberculosis H37Rv; assay: microplate Alamar blue assay (MABA), MIC; format: cell-based; conditions: replicating H37Rv
Mycobacterium avium = assay: microdilution plate assay, MIC; format: cell-based
Vero cells = assay: cytotoxicity, MTT assay; format: cell-based; conditions: Chlorocebus sabaeus
Experimental: (§1) The compounds were examined for toxicity (IC50) using MTT assay. Briefly, cells (3 ~ 5 × 10^3 cells/well) were seeded in a 96-well plate. After 24 h incubation, the cells were treated with various concentrations of drugs for 24, 48, 72 h, respectively. Columns one and two in the assay plates contained-media +0.1% DMSO for a negative control ,Then, 20 μl of a 5 mg/mL MTT solution was added to each well, and the plates were incubated for an additional 2~4 h at 37 °C. The medium was subsequently discarded, and DMSO 150 μL was added to dissolve the formazan. Oscillate 15 min, the OD 570 was measured using a Spectra MAX M5 microplate spectrophotometer (Molecular Devices, CA, USA), and the IC50 values were calculated.
(§2) Compound MIC was conducted by ShangHai Chempartner Co., Ltd (Shanghai, China) using the microplate Alamar Blue assay (MABA) against Mycobacterium tuberculosis H37Ra (ATCC 25177). Cytotoxicity of tested compounds was assessed on Vero cells.

MDR-TB clinical isolates = assay: microbe, parasite or virus in culture; format: cell-based; conditions: Mycobacterium tuberculosis
XDR-TB clinical isolates = assay: microbe, parasite or virus in culture; format: cell-based, Mycobacterium tuberculosis; conditions: for MIC: Mycobacterium tuberculosis
M. tuberculosis H37Rv = assay: MABA checkerboard synergy assay; format: cell-based, Mycobacterium tuberculosis; conditions: for MIC: Mycobacterium tuberculosis, H37RV, 336 h, checkerboard, drug alone, read-out: MIC against H37Rv, MIC alone
[2] = system: Mycobacterium tuberculosis Erdman; assay: microplate Alamar blue assay (MABA), MIC; format: cell-based
A549 cells = assay: cytotoxicity, MTT assay; format: cell-based; conditions: Homo sapiens
Experimental: as §1

J774A.1 cells = assay: cytotoxicity, MTT assay; format: cell-based; conditions: Mus musculus, J774.A1
Experimental: as §1

[3] = system: M. tuberculosis Erdman in J774A.1 cells; assay: macrophage assay, intracellular activity; format: cell-based, Mycobacterium tuberculosis
Experimental: As described previously, J774A.1 cells were grown in 75-cm2 cell culture flasks in 10% FBS in Dulbecco’s modified Eagle’s medium (DMEM) until confluency. The cells were detached using a cell scraper, and then centrifuged at 200 g for 5 min at room temperature. The cells were incubated at 37 °C under 5% CO2 for 16 h after distributing into 24-well plates containing coverslips. M. tuberculosis Erdman (ATCC 35801) were diluted to a final concentration of 1 × 10^5 to 3 × 10^5 CFU/mL with DMEM after thawing and sonicating from frozen cultures. And 500 ul of the dilution was dispensed to each well of a new 24-well plate. Followed by, J774A.1 cells on coverslips were infected by incubation with M. tuberculosis Erdman at 37 °C for 2 h. Coverslips were then washed with HBSS and transferred to new 24-well plates. The Cultures were treated in triplicate with compounds at 0.02 μM containing DMEM and incubated at 37 °C under 5% CO2 for 16 h. At D 0 (for untreated controls) and after 7 days of incubation, macrophage cells were lysed by addition of 200 μL of 0.25% sodium dodecyl sulfate. The plates were incubated at 37 °C for 10 min, and 200 μL of DMEM was added. The lysate was sampled using a microtube and sonicated for 15 s. Then 1:1, 1:10, 1:100, and 1:1,000 dilutions were plated on 7H11 agar plates and CFU counts determined after 2 to 3 weeks of incubation at 37 °C.

[4] = pharmacokinetic study in SD rats; format: in vivo; conditions: female, rat, 5 mg/kg
Experimental: All animal experiments have been approved by the Institutional Animal Care and Treatment Committee of Sichuan University in China and were carried out in accordance with the approved guidelines. SPF female SD rats weighing 180–220 g were used in the pharmacokinetic study. The rats were fasted overnight before dosing. Every treatment group contain 3 rats. Rats were dosed with SKLB-TB1001 or BTZ043 suspension at 5 mg/kg (i.v. and p.o.). Compounds were dissolved in 5% DMSO/10% Solutol HS15 in saline for intravenous injection and suspended in 0.5% CMC for oral administration. Blood was collected from the jugular vein of each animal at the following times after administration of drugs: 0.083, 0.25, 0.5, 1, 2, 4, 6, 8 and 24 h after a single i.v. dosing; and 0.25, 0.5, 1, 2, 4, 6, 8 and 24 h after a single oral dosing. All blood samples were centrifuged at 3000 r/min for 10 min to obtain serum which was then stored at −20 °C. 150 μL of the serum was added to 500 μL of acetonitrile and the mixture was centrifuged at 13000 r/min for 10 min to remove protein. The supernatant was dried and dissolve in 100 μL of acetonitrile, the solution was centrifuged at 13000 r/min for 10 min. The supernatant was moved to a sample bottle for HPLC analysis. Total area under the concentration time curve (AUC), the elimination half-time (t1/2), the peak concentration (Cmax) and the time to reach peak concentration (Tmax) of samples were determined directly from the experimental data using WinNonlin V6.2.1.

M. tuberculosis Erdman = assay: in vivo acute M.tb Erdman infection mouse model; set-up: species or system Mycobacterium tuberculosis
[5] = system: Mycobacterium tuberculosis H37Ra (ATCC 25177); assay: microplate Alamar Blue assay (MABA), MIC, H37Ra; format: cell-based
Experimental: as §2

aqueous solubility = format: physicochemical
Experimental: (§3) The In vitro ADME/T assays were conducted at WuXi AppTec Co. Ltd.(Shanghai). ClogP was calculated with ChemDraw Ultra 14.0. In the study of bi-directional permeability across MDR1-MDCKII cell monolayer, permeability was correlated with the apparent permeability coefficient Papp (cm/s), which was interpreted as follows: Low permeability( Papp ≤ 1.0×10^-6 cm/s), Moderate permeability(1.0×10^-6 < Papp < 5.5×10^-6 cm/s) or High permeability( Papp ≥ 5.5×10^-6 cm/s). ^aaqueous solubility at room temperature.

plasma protein binding = format: in vitro ADME; conditions: mouse
Experimental: as §3

[6] = system: MDR1-MDCKII cell monolayer; assay: bi-directional permeability across MDR1-MDCKII cell monolayer; format: in vitro ADME; conditions: dog, MDCK-MDR1
Experimental: as §3

CYP2C19 = CYP2C19 (Homo sapiens, UniProt P33261); assay: CYP inhibition; format: in vitro ADME; conditions: read-out: CYP inhibition IC50, CYP2C19
CYP2C19, sequence (P33261 whole entry): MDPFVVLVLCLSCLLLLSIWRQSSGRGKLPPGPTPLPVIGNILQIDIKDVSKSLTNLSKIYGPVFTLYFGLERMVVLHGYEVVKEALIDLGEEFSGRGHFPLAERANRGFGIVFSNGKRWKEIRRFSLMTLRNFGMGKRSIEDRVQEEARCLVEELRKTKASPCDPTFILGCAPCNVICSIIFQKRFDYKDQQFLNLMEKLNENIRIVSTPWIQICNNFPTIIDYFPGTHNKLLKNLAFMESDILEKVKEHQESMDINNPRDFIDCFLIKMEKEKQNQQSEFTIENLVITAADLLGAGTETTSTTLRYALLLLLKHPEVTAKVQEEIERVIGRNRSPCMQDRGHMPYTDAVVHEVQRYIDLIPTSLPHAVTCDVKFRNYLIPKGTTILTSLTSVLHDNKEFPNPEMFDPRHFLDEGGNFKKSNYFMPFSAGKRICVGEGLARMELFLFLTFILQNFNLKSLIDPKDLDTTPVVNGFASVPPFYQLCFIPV
Experimental: as §3

CYP2C9 = CYP2C9 (Homo sapiens, UniProt P11712); assay: CYP inhibition; format: in vitro ADME; conditions: read-out: CYP inhibition IC50, CYP2C9
CYP2C9, sequence (P11712 whole entry): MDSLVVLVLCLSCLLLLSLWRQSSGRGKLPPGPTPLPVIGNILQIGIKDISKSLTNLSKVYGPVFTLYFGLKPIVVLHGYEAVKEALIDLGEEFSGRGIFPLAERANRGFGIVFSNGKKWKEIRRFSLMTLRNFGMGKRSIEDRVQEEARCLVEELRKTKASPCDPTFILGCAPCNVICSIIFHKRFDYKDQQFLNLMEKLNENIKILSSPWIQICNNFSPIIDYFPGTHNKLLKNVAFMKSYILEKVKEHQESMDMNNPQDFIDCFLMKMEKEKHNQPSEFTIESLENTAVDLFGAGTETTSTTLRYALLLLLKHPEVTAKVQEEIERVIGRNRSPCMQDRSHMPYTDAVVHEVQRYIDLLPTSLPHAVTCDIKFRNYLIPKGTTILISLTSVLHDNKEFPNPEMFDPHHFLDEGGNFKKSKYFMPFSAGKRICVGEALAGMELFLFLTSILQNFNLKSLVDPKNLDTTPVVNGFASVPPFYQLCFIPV
Experimental: as §3

CYP2D6 = CYP2D6 (Homo sapiens, UniProt P10635); assay: CYP inhibition; format: in vitro ADME; conditions: read-out: CYP inhibition IC50, CYP2D6
CYP2D6, sequence (P10635 whole entry): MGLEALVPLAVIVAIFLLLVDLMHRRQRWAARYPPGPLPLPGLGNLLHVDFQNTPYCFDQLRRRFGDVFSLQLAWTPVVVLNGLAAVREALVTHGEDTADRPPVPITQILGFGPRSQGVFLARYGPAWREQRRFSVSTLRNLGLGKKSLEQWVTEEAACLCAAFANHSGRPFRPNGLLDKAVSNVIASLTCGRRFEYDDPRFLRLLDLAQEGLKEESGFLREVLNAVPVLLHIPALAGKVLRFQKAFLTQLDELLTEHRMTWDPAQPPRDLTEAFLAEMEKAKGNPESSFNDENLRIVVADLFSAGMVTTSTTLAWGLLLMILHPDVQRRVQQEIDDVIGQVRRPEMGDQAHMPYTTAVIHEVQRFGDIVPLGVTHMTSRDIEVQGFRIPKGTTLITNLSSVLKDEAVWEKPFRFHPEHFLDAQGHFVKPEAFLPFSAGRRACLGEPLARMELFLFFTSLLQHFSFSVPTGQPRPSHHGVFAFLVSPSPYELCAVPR
Experimental: as §3

CYP3A4 = CYP3A4 (Homo sapiens, UniProt P08684); assay: CYP inhibition; format: in vitro ADME; conditions: read-out: CYP inhibition IC50, CYP3A4
CYP3A4, sequence (P08684 whole entry): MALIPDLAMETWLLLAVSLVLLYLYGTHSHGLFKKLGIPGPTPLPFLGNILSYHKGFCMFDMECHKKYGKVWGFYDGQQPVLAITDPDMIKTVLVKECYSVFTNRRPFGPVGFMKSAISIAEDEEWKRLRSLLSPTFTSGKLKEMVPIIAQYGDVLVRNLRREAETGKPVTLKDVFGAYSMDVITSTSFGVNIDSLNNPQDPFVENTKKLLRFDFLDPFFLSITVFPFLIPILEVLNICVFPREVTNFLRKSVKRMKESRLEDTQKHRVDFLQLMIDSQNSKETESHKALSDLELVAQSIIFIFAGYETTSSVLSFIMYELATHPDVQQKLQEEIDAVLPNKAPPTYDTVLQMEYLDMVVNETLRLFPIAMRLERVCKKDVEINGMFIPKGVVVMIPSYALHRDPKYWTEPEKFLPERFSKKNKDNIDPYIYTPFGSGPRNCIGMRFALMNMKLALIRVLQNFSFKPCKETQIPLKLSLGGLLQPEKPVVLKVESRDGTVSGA
Experimental: as §3

[7] = system: Mycobacterium tuberculosis; set-up: method as in PMID 19299584; conditions: cited from earlier work
[8] = Vero, cytotoxicity, read-out: IC50 Vero
[9] = read-out: MIC, MDR-TB strain M3
[10] = read-out: MIC, MDR-TB strain M4
[11] = read-out: MIC, MDR-TB strain M8
[12] = read-out: MIC, MDR-TB strain M18
[13] = read-out: MIC, XDR-TB strain X15
[14] = read-out: MIC, XDR-TB strain X17
[15] = clinical isolate, Table 2 prints no unit, test range 0.0156 to 64 μg/mL

Q: With `NNC(=O)c1ccncc1` [INH, isoniazid] as the compound, how does the MIC [1] read?
A: 0.47 µg/mL (≈ 3.43 µM)

Q: What about the MIC (Mycobacterium avium) of the same compound?
A: 16 µg/mL (≈ 117 µM)

Q: And the IC50 (Vero cells; [8])?
A: > 100 µg/mL

Q: And the MIC (MDR-TB clinical isolates; [9])?
A: 8 µg/mL (≈ 58.3 µM)

Q: And the MIC (MDR-TB clinical isolates; [10])?
A: 1 µg/mL (≈ 7.29 µM)

Q: What about the MIC (MDR-TB clinical isolates; [11]) of the same compound?
A: 4 µg/mL (≈ 29.2 µM)

Q: What about the MIC (MDR-TB clinical isolates; [12]) of the same compound?
A: 1 µg/mL (≈ 7.29 µM)

Q: And the MIC (XDR-TB clinical isolates; [13])?
A: 16 µg/mL (≈ 117 µM)

Q: And the MIC (XDR-TB clinical isolates; [14])?
A: 1 µg/mL (≈ 7.29 µM)

Q: What about the MIC (M. tuberculosis H37Rv) of the same compound?
A: 0.03 µg/mL

Q: What about the “MIC against H37Rv, MIC in combo.” value (M. tuberculosis H37Rv; in combination with TB1001) of the same compound?
A: 0.01 µg/mL

Q: With `CC[C@@H](CO)NCCN[C@@H](CC)CO` [EMB, ethambutol] as the compound, how does the MIC (MDR-TB clinical isolates; [9]) read?
A: 4 µg/mL (≈ 19.6 µM)

Q: And the MIC (MDR-TB clinical isolates; [10])?
A: 2 µg/mL (≈ 9.79 µM)

Q: And the MIC (MDR-TB clinical isolates; [11])?
A: 4 µg/mL (≈ 19.6 µM)

Q: What about the MIC (MDR-TB clinical isolates; [12]) of the same compound?
A: 8 µg/mL (≈ 39.2 µM)

Q: And the MIC (XDR-TB clinical isolates; [13])?
A: 16 µg/mL (≈ 78.3 µM)

Q: What about the MIC (XDR-TB clinical isolates; [14]) of the same compound?
A: 16 µg/mL (≈ 78.3 µM)

Q: Which “MIC, XDR-TB strain X15” value (XDR-TB clinical isolates; [15]) does the source give for `NC[C@H]1O[C@H](O[C@H]2[C@H](O)[C@@H](O[C@H]3O[C@H](CO)[C@@H](O)[C@H](N)[C@H]3O)[C@H](N)C[C@@H]2N)[C@H](O)[C@@H](O)[C@@H]1O` [KM, kanamycin] here?
A: 64 µg/mL (≈ 132 µM)

Q: What about the “MIC, XDR-TB strain X17” value (XDR-TB clinical isolates; [15]) of the same compound?
A: 64 µg/mL (≈ 132 µM)

Q: For `O=c1nc(N2CCN(CC3CCCCC3)CC2)sc2c([N+](=O)[O-])cc(C(F)(F)F)cc12` [PBTZ169], which MIC [1] is on record?
A: 0.02 µg/mL (≈ 0.0438 µM)

Q: What about the MIC [2] of the same compound?
A: ≤ 0.05 µg/mL

Q: And the IC50 (Vero cells; [8])?
A: > 100 µg/mL

Q: What does the source list for `C[C@H]1COC2(CCN(c3nc(=O)c4cc(C(F)(F)F)cc([N+](=O)[O-])c4s3)CC2)O1` [BTZ043]?
A: MIC [1]: 0.02 µg/mL (≈ 0.0464 µM); MIC (Mycobacterium avium): 32 µg/mL (≈ 74.2 µM); MIC [2]: < 0.05 µg/mL; IC50 (Vero cells; [8]): > 100 µg/mL; IC50 (Vero cells; cytotoxicity on Vero cells, read-out: IC50): > 20 µM; IC50 (A549 cells): 25 µg/mL (≈ 58 µM); IC50 (J774A.1 cells): 32 µg/mL (≈ 74.2 µM); MIC (M. tuberculosis H37Rv): 0.011 µg/mL; MIC against H37Rv, MIC in combo. (M. tuberculosis H37Rv; in combination with RMP): 0.008 µg/mL; Log10 CFU, intracellular Mtb Erdman ([3]; J774A.1 macrophages, 0.02 μM (Fig. 2 legend: 0.02 μg/mL), 7 days): 4.70; Fold(log) reduction ([3]; decrease of log10 CFU between D7 and treatment group, J774A.1, 0.02 μM (Fig. 2 legend: 0.02 μg/mL)): 2.2 log and 2.15 log; bioavailability ([4]; SD, in vivo): 29.5%; AUC ([4]; SD, in vivo, po): 899 ng·h/mL; Cmax ([4]; SD, in vivo, po): 543 ng/mL; Tmax ([4]; SD, in vivo, po): 15 min; half-life ([4]; plasma, po, SD rats, terminal half-life for elimination): 73.2 min; activity in the acute Mtb Erdman infection mouse model (M. tuberculosis Erdman; 150 mg/kg): not significantly active; Log10 CFU (SD), bacterial burden in mouse lungs (M. tuberculosis Erdman; BALB/c mice, Day-36, 150 mg/kg oral daily from day 10): 6.31 (5.85); MIC [5]: < 0.1 µM; Solubility (aqueous solubility): <1; fraction unbound (plasma protein binding): < 0.01; Permeability (Mean Papp, MDR1) A to B [6]: 9.02 10^-6 cm/s; Permeability (Mean Papp, MDR1) B to A [6]: 7.17 10^-6 cm/s; efflux ratio [6]: 0.79; IC50 (CYP2C19): > 10 µM; IC50 (CYP2C9): > 10 µM; IC50 (CYP2D6): > 10 µM; IC50 (CYP3A4): > 10 µM; MIC [7]: 0.001 µg/mL (≈ 0.00232 µM)

Q: What does the source list for `CC(=O)NC[C@H]1CN(c2ccc(N3CCOCC3)c(F)c2)C(=O)O1` [LZD, Linezolid]?
A: MIC (M. tuberculosis H37Rv): 0.145 µg/mL; MIC against H37Rv, MIC in combo. (M. tuberculosis H37Rv; in combination with TB1001): 0.1 µg/mL
